Patent publication US11976083B2, “Inhibitors of peptidylarginine deiminases” (Gilead Sciences, Inc., priority 2020, dated 2024)

These compounds were tested against T1, human PAD4 (Homo sapiens, UniProt Q9UM07) (assay: In vitro PAD4 BAEE biochemical assay). Details: BAEE substrate 3 mM, 5 nM PAD4, 2 mM calcium chloride; geometric mean of multiple experiments.
T1 construct: human PAD4 (NM_012387), A2-P663, was PCR amplified; His-SUMO (N, cleaved yes); made in house; host or cells: E. coli BL21(DE3)
Summary of the method: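 Fluorescence read-out (ex 405/em 535 nm) of isoindole formed from ammonia, o-phthalaldehyde and DTT after EDTA stop. Reaction: 5 nM PAD4, 2 mM CaCl2, 3 mM BAEE, 2 h, 25 °C, after 30 min enzyme–compound preincubation. Normalised to BB-Cl-Amidine (50 µM) and DMSO controls.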

T1 sequence (Q9UM07 2-663): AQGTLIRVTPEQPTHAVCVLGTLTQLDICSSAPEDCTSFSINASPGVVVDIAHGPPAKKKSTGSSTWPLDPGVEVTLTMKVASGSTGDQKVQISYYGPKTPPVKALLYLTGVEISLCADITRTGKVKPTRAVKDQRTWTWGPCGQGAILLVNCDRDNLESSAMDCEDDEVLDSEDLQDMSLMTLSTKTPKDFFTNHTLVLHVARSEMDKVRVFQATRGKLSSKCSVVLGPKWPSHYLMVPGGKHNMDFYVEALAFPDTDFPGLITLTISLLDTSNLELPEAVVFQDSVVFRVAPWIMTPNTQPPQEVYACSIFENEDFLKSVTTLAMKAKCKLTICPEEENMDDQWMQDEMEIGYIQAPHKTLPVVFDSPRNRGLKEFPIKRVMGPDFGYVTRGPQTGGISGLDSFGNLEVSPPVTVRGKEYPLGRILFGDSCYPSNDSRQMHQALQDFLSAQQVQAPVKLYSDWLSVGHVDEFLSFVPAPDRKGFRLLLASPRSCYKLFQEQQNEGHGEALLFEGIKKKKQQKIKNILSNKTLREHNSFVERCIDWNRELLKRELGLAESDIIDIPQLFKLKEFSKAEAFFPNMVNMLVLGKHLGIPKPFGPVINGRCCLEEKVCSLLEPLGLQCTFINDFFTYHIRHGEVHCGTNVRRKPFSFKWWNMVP

Question: Which IC50 does the source give for `COc1cc(C(=O)N2CC[C@@H](O)[C@@H](N)C2)cc2nc(-c3cc4ccc5nc4n3CC(F)(F)CCC[C@@H]3C[C@H]3C(=O)N[C@@H]5C)n(C)c12` [Example 680, (2~{R},5~{R},7~{R})-14-[5-[(3~{S},4~{R})-3-amino-4-hydroxy-piperidine-1-carbonyl]-7-methoxy-1-methyl-benzimidazol-2-yl]-11,11-difluoro-2-methyl-3,13,19-triazatetracyclo[11.5.2.0^ {5,7}.0^{16,20}]icosa-1(19), 14,16(20),17-tetraen-4-one] here?
Answer: 0.034 µM

Question: Which IC50 does the source give for `COc1cc(C(=O)N2C[C@H](N)[C@H](OC)[C@@H](F)C2)cc2nc(-c3cc4ccc5nc4n3CC(F)(F)CCC[C@@H]3C[C@H]3C(=O)N[C@@H]5C)n(C)c12` [Example 681, (2~{R},5~{R},7~{R})-14-[5-[(3~{S},4~{S}, 5~{S})-3-amino-5-fluoro-4-methoxy-piperidine-1-carbonyl]-7-methoxy-1-methyl-benzimidazol-2-yl]-11,11-difluoro-2-methyl-3,13,19-triazatetracyclo [11.5.2.0^{5,7}.0^{16,20}] icosa-1(19),14,16(20), 17-tetraen-4-one] here?
Answer: 0.039 µM

Question: Which IC50 does the source give for `C[C@H]1NC(=O)[C@@H]2C[C@@H]2CCCC(F)(F)Cn2c(-c3nc4cc(C(=O)N5C[C@H](N)[C@@H]6CC[C@H]5C6)cc(F)c4n3C3CC3)cc3ccc1nc32` [Example 682, (2~{R},5~{R},7~{S})-14-[5-[(1~{S},4~{R},5~{R})-4-amino-2-azabicyclo[3.2.1]octane-2-carbonyl]-1-cyclopropyl-7-fluoro-benzimidazol-2-yl]-11,11-difluoro-2-methyl-3,13,19-triazatetracyclo[11.5.2.0^ {5,7}.0^{16,20}] icosa-1(19),14,16(20), 17-tetraen-4-one] here?
Answer: 0.028 µM

Question: For `C[C@@H]1c2ccc3cc(-c4nc5cc(C(=O)N6C[C@H](N)[C@@H]7CC[C@H]6C7)cc(F)c5n4C4CC4)n(c3n2)CC(F)(F)CCC[C@H]2C[C@H]2C(=O)N1C` [Example 683, (2~{R},5~{R},7~{S})-14-[5-[(1~{S},4~{R},5~ {R})-4-amino-2-azabicyclo[3.2.1]octane-2-carbonyl]-1-cyclopropyl-7-fluoro-benzimidazol-2-yl]-11,11-difluoro-2,3-dimethyl-3,13,19-triazatetracyclo [11.5.2.0^{5,7}.0^{16,20}] icosa-1(19),14,16(20), 17-tetraen-4-one], which IC50 is on record?
Answer: 0.016 µM

Question: Which IC50 does the source give for `C[C@H]1NC(=O)C(C)(C)CCCCCn2c(-c3nc4cc(C(=O)N5C[C@H](N)[C@@H]6CC[C@H]5C6)cc(F)c4n3C3CC3)cc3ccc1nc32` [Example 684, (10~{R})-16-[5-[(1~{S}, 4~{R},5~{R})-4-amino-2-azabicyclo [3.2.1]octane-2-carbonyl]-1-cyclopropyl-7-fluoro-benzimidazol-2-yl]-7,7,10-trimethyl-1,9,18-triazatricyclo[9.5.2.0^ {14,17}]octadeca-11(18), 12,14(17),15-tetraen-8-one] here?
Answer: 0.02 µM

Question: How did the IC50 turn out when `COc1ccc2c(n1)CCCCCn1c(-c3nc4cc(C(=O)N5C[C@H](N)[C@@H]6CC[C@H]5C6)cc(F)c4n3C3CC3)cc3ccc(nc31)[C@@H](C)NC2=O` [Example 685, (2~{R})-17-[5-[(1~{S},4~{R}, 5~{R})-4-amino-2-azabicyclo[3.2.1]octane-2-carbonyl]-1-cyclopropyl-7-fluoro-benzimidazol-2-yl]-8-methoxy-2-methyl-3,9,16,22-tetrazatetracyclo [14.5.2.0^{5,10}.0^{19, 23}]tricosa-1(22),5(10), 6,8,17,19(23),20-heptaen-4-one] was run?
Answer: 0.013 µM

Question: With `COc1cc(C(=O)N2CC[C@@H](OC)[C@@H](N)C2)cc2nc(-c3cc4ccc5nc4n3CCCCCC[C@]3(CCCO3)C(=O)N[C@@H]5C)n(C)c12` [Example 686, (8~{S},11~{R})-17-[5-[(3~{S},4~{R})-3-amino-4-methoxy-piperidine-1-carbonyl]-7-methoxy-1-methyl-benzimidazol-2-yl]-11-methyl-spiro[1,10,19-triazatricyclo [10.5.2.0^{15,18}]nonadeca-12(19),13,15(18),16-tetraene-8,2′-tetrahydrofuran]-9-one] as the compound, how does the IC50 read?
Answer: 0.044 µM
